Experimental data from patent US20230357301A1, “HEXOSE DERIVATIVES, PREPARATION AND USES THEREOF” (Faculdade de Ciencias da Universidade de Lisboa, priority 2014, published 2023).

What was measured:
porcine insulin = target: T1, porcine insulin (Sus scrofa, UniProt P01315); experiment: DSF thermal stability assay, porcine insulin; conditions: insulin 129 µM, solute 0.1 and 0.25 M (FIG. 11)
T1 construct: solutions comprising porcine insulin at a concentration of 129 µM

[1] = target: T2, staphylococcal nuclease (SNase) (Staphylococcus aureus, UniProt P00644); experiment: DSF thermal stability assay, staphylococcal nuclease; conditions: solute 0.1, 0.25 and 0.5 M (FIG. 8)
T2 construct: Recombinant staphylococcal nuclease A (SNase) was produced and purified from Escherichia coli cells; made in house; host or cells: Escherichia coli
Experimental: (§1) The DSF based stability assays were performed at each protein working pH and the melting temperatures (TM) values determined in the absence (control experiments) and in the presence of solutes, and at different solute concentrations. The denaturation curves for each assay were analysed, and the melting temperatures determined by the calculation of the first derivative, which corresponds to the midpoint temperature of the protein-unfolding transition. In the absence of solutes, malate dehydrogenase (MDH), staphylococcal nuclease (SNase) and lysozyme have melting temperatures (TM) of 50, 52 and 71° C. respectively. The unfolding temperature shifts (ΔTM) were calculated by comparing the TM values obtained in the presence of solutes with the TM values of the control experiments (absence of solutes).
(§2) Mannosylglycerate (MG), glucosylglycerate (GG), glucosylglucosylglycerate (GGG), mannosyl glycolate (MGly) and mannosyl lactate (ML) were obtained by chemical synthesis as described in literature (Costa 1998). New synthetic compounds were obtained by chemical synthesis as described in Example 1. […] Purity and concentration of the compounds was assessed by ^1H NMR spectra obtained at 500 MHz spectrometer in D2O. For quantification purposes, spectra were acquired with a repetition delay of 60 s with formate as concentration standard. […]

lysozyme = target: T3, lysozyme (Gallus gallus, UniProt P00698); experiment: DSF thermal stability assay, lysozyme; set-up: species or system hen
T3 construct: hen egg white lysozyme was purchased from Sigma-Aldrich; purchased Sigma-Aldrich; host or cells: hen egg white
T3 sequence (P00698 19-147): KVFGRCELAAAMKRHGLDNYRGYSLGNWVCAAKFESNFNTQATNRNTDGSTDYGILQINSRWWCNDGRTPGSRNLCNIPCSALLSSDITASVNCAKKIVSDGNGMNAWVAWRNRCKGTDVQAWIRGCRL
Experimental: The DSF based stability assays were performed at each protein working pH and the melting temperatures (TM) values determined in the absence (control experiments) and in the presence of solutes, and at different solute concentrations. The denaturation curves for each assay were analysed, and the melting temperatures determined by the calculation of the first derivative, which corresponds to the midpoint temperature of the protein-unfolding transition. […] The unfolding temperature shifts (ΔTM) were calculated by comparing the TM values obtained in the presence of solutes with the TM values of the control experiments (absence of solutes).
Mitochondrial malate dehydrogenase from pig heart (MDII) was purchased from Roche, and hen egg white lysozyme was purchased from Sigma-Aldrich. These enzymes were used without further purification.
The protein melting temperature (TM) determination was performed by monitoring protein unfolding with the fluoroprobe SYPRO Orange dye (Molecular Probes), which although completely quenched in aqueous environment, emits fluorescence upon binding to protein hydrophobic patches. Such increase in fluorescence can be measured as a function of temperature using Differential Scanning Fluorimetry. In a typical assay with a total volume of 20 µL, a protein concentration from 0.14 to 0.21 mg/mL, and a dye concentration of 5 fold were used to guarantee the best signal to noise ratio. Protein stock solutions of SNase or MDH were prepared in phosphate buffer (20 mM of sodium phosphate, pH 7.6), and lysozyme was prepared in citrate buffer (40 mM sodium citrate, 110 mM NaCl, pH 6.0). These stock solutions were extensively dialyzed against the same buffer before the assays. […] Solute solutions were prepared in water with the respective concentrations. […] Fluorescence intensities versus temperature are used to calculate the protein melting temperature (TM) by determining the first derivative (d(Rfu)/dT) to extract the exact transition inflection point.

[2] = target: T4, malate dehydrogenase (MDH) (Sus scrofa, UniProt P00346); experiment: DSF thermal stability assay, malate dehydrogenase; set-up: species or system pig; conditions: solute 0.1, 0.25 and 0.5 M (FIG. 9)
T4 construct: Mitochondrial malate dehydrogenase from pig heart (MDII) was purchased from Roche; purchased Roche; host or cells: pig heart
T4 sequence (P00346 25-338): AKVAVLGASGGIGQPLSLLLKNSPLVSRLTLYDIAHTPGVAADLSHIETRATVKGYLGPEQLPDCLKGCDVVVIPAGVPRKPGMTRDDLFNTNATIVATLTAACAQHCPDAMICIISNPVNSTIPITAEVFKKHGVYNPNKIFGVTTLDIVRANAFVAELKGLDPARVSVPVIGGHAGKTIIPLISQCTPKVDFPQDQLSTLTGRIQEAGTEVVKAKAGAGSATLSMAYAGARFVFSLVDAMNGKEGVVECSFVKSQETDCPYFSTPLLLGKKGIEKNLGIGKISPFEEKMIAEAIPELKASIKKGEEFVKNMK
Experimental: as §1, §2

T1 sequence (P01315 25-54 limits assumed): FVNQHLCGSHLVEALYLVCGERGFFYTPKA
T1 sequence (P01315 88-108 limits assumed): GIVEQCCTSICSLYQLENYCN

O=C([O-])COC1O[C@H](CO)[C@@H](O)[C@H](O)[C@H]1O.[K+] (stereo partly drawn) [glucosyl glycolate, Potassium 2-(α/β-D-glucopyranosyl) acetate]
increment in melting temperature of porcine insulin (porcine insulin): highest increases in melting temperature

Potassium (2S) -2-0- (α/β-D-galactopyranosyl)-2-hydroxysuccinate [α-galactosyl malate]
dependence of SNase melting temperature on the concentration of solutes [1]: clearly the best stabiliser
dependence of lysozyme melting temperature on the concentration of solutes (lysozyme; solute 0.1, 0.25 and 0.5 M (FIG. 10)): clearly the best stabiliser

Potassium (2S)-2-O-(α/β-D-glucopyranosyl)-2-hydroxysuccinate [glucosyl malate]
dependence of MDH melting temperature on the concentration of solutes [2]: the best stabiliser
increment in melting temperature of porcine insulin (porcine insulin): highest increases in melting temperature

CC(=O)[O-].[K+] [AcOK, potassium acetate]
stabilising effect of AcOK alone on lysozyme (lysozyme; AcOK alone, concentration dependence (FIG. 6)): not a good stabiliser, stabilising only at high salt concentrations
stabilising effect of AcOK on lysozyme in conjugation with hypersolutes (lysozyme; AcOK with hypersolutes (0.5 M) (FIG. 6)): able to enhance their stabilisation properties
